# From patent US5977169A, “Substituted tetronic acids useful for treating HIV and other retroviruses” (priority 1997, dated 1999)
# Structures can show the parent of a compound that is named as a salt.
# Molecular target: T1, HIV-1 protease (Human immunodeficiency virus type 1 group M subtype B, UniProt P04585)
# T1 construct: The protease (or proteinase) enzyme, consisting of only 99 amino acids
# Assay: In vitro HIV protease inhibitory assay (fluorescently labeled substrate, avidin-polystyrene particles)
# Format: biochemical
# Conditions: for inhibition at 3.3 µM: HIV-1 dose 3.3 μM; for inhibition at 10 µM: HIV-1 dose 10.0 μM; for inhibition at 30 µM: HIV-1 dose 30.0 μM; for inhibition at 1 µM: HIV-1 dose 1.0 μM; for inhibition at 100 µM: HIV-1 dose 100.0 μM; for inhibition at 1.1 µM: HIV-1 dose 1.1 μM
# Experimental: The HIV protease screening assay is based on a fluorescently labeled substrate which can be resolved from nonlabeled cleavage product using avidin-polystyrene particles, 0.7-0.9 μm. The substrate is biotinylated at the amino terminal arginine and fluorescently labeled with fluorescein isothiocynate (FITC) at the carboxyl terminal lysine. This assay has been employed to detect novel, nonpeptidic inhibitors of HIV-1 protease. Substrate (20 μl of 0.2 μM), sample (10 μl of desired concentraion), and enzyme (10 μl of 0.1 μM) are added to a 96 well pandex plate. The assay is run in 0.1 M sodium acetate buffer at pH 5.5 in the presence of 1.0 M sodium chloride and 0.05% NP-40 and incubated in the dark for one hour at room temperature. Avidin coated polystyrene beads (40 μl of 0.1% (w/v)) are added and the incubation is continued in the dark for an additional half hour. The labeled cleavage product is separated from the unreacted substrate via filtration and is read on the IDEXX Screen Machine. (IDEXX Corporation--Portland, Me.) The data are analyzed by appropriate computer algorithms to ascertain percent inhibition values.
# The Activity Table showing the results of the HIV Protease Inhibitory Assay appears below in TABLE 1. The table has three columns, the left column provides the code number of the compound for easy cross reference to structure tables and detailed procedures, the middle column provides the concentration of test compound and the column on the right provides the percent inhibition.
# [1] = test compound concentration 3.3 μM
# [2] = test compound concentration 10.0 μM
# [3] = test compound concentration 30.0 μM
Structure (SMILES),inhibition at 3.3 µM [%],inhibition at 10 µM [%],inhibition at 30 µM [%],further results
CCCC1(CCC)OC(=O)C(C(c2cccc(NS(=O)(=O)c3nnnn3-c3ccccc3)c2)C2CC2)=C1O (stereo not drawn) [IX-50],108,104,106,–
Cn1cnc(S(=O)(=O)Nc2cccc(C(C3=C(O)C(Cc4ccccc4)(Cc4ccccc4)OC3=O)C(C)(C)C)c2)c1 (stereo not drawn) [IX-53],102,104,92,–
"CCCC(c1ccccc1)C1OC(=O)C(C(c2ccccc2)C2CC2)=C1O (stereo not drawn) [GX-7, 2(5H)-Furanone, 3-(cyclopropylphenylmethyl)-4-hydroxy-5-(1-phenylbutyl)-]",92.7,103,102,–
"O=C1OC(CCCc2ccccc2)C(O)=C1C(Cc1ccccc1)c1ccccc1 (stereo not drawn) [FX-1, 2(5H)-Furanone, 3-(1,2-diphenylethyl)-4-hydroxy-5-(3-phenylpropyl)-]",15.5,35.4,50.6,–
"O=C1OC(CCCc2ccccc2)C(O)=C1C(c1ccccc1)C1CC1 (stereo not drawn) [BX-3, 2(5H)-Furanone, 3-(cyclopropylphenylmethyl)-4-hydroxy-5-(3-phenylpropyl)-]",–,90.6,–,inhibition at 1 µM: 46%; inhibition at 100 µM: 93.2%
"O=C1OC2(CCCCC2Cc2ccccc2)C(O)=C1C(c1ccccc1)C1CC1 (stereo not drawn) [IX-6, 1-Oxaspiro[4.5]dec-3-en-2-one, 3-(cyclo-propylphenylmethyl)-4-hydroxy--6-(2-phenylmethyl)-]",101,104,105,–
"CCCC1(CCC)OC(=O)C(C(c2ccccc2)c2cccc(NS(=O)(=O)c3cn(C)cn3)c2)=C1O (stereo not drawn) [IX-48, 1H-Imidazole-4-sulfonamide, N-(3-((5,5-dipropyl-4-hydroxy-2-oxo-2,5-dihydro-3 furanyl)-phenyl-methyl)phenyl)-1-methyl-]",94.5,94.7,89.1,–
"CCC1(CCc2ccccc2)OC(=O)C(C(c2ccccc2)C2CC2)=C1O (stereo not drawn) [DX-7, 2(5H)-Furanone, 3-(cyclopropylphenylmethyl)-5-ethyl-4-hydroxy-5-(2-phenyl-ethyl)-]",108,112,103,–
"CCCC1(CCC)OC(=O)C(C(CC(C)C)c2cccc(NS(=O)(=O)c3ccc(C#N)cc3)c2)=C1O (stereo not drawn) [IX-21, Benzenesulfonamide, 4-Cyano-N-(3-(1-(4-hydroxy-2-oxo-5,5-dipropyl-2,5-dihydro-furan-3-yl)-3-methyl-butyl)-phenyl)-]",95.7,101,96.1,–
"CCCC1(CCCc2ccccc2)OC(=O)C(C(c2ccccc2)C2CC2)=C1O (stereo not drawn) [DX-1, 2(5H)-Furanone, 3-(cyclopropylphenylmethyl)-4-hydroxy-5-(3-phenyl-propyl)-5-propyl-]",108,106,105,–
"O=C1OC(Cc2ccccc2)C(O)=C1C(c1ccccc1)C1CC1 (stereo not drawn) [BX-1, 5H-Furan-2-one, 5-benzyl-3-cyclopropylphenylmethyl-4-hydroxy-]",–,80.1,–,inhibition at 1 µM: 18.7%; inhibition at 100 µM: 90.5%
"CCCC1(CCc2ccccc2)OC(=O)C(C(c2ccccc2)C2CC2)=C1O (stereo not drawn) [DX-8, 2(5H)-Furanone, 3-(cyclopropylphenylmethyl)-4-hydroxy-5-(2-phenyl-ethyl)-5-propyl-]",114,109,103,–
"CCC(C)C1(CCCc2ccccc2)OC(=O)C(C(c2ccccc2)C2CC2)=C1O (stereo not drawn) [DX-19, 2(5H)-Furanone, 3-(cyclopropylphenylmethyl)-4-hydroxy-5-(1-methylpropyl)--5-(3-phenylpropyl)-]",100,–,–,inhibition at 0.37 µM (HIV-1 dose 0.37 μM): 100%; inhibition at 1.1 µM: 103%
"O=C1OC2(CCCCC2CCc2ccccc2)C(O)=C1C(c1ccccc1)C1CC1 (stereo not drawn) [IX-5, 1-Oxaspiro[4.5]dec-3-en-2-one, 3-(cyclo-propylphenylmethyl)-4-hydroxy--6-(2-phenylethyl)-]",–,–,–,HIV-1 Protease % Inhibition [1]: 91.93%; HIV-1 Protease % Inhibition [2]: 95.68%; HIV-1 Protease % Inhibition [3]: 92.9%
"CCCC1(CCC)OC(=O)C(C(c2cccc(NS(=O)(=O)c3ccc(C#N)c(C4CCCC4)c3)c2)C2CCCC2)=C1O (stereo not drawn) [IX-49, Benzenesulfonamide, 4-cyano 3-cyclpentyl-N-(3-(cyclopentyl(2,5-dihydro-4-hydroxy-2-oxo-5,5-dipropyl-3-furanyl)methyl)phenyl)-]",–,–,–,HIV-1 Protease % Inhibition [1]: 86.97%; HIV-1 Protease % Inhibition [2]: 94.94%; HIV-1 Protease % Inhibition [3]: 78.56%
"CCC1(CC)OC(=O)C(C(c2ccccc2)C2CC2)=C1O (stereo not drawn) [BX-14, 2(5H)-Furanone, 3-(cyclopropylphenymethyl)-5,5-diethyl-4-hydroxy-]",92.7,94,99,–

Structure (SMILES),inhibition at 3.3 µM [%],inhibition at 10 µM [%],inhibition at 30 µM [%],further results
"CCCC1(CCC)OC(=O)C(C(c2cccc(N)c2)C2CC2)=C1O (stereo not drawn) [IX-12, 2(5H)-Furanone, 3-((3-aminophenyl)cyclopropylmethyl)-4-hydroxy-5,5-dipropyl-hydrochloride]",–,–,–,HIV-1 Protease % Inhibition [1]: 117.79%; HIV-1 Protease % Inhibition [2]: 119.69%; HIV-1 Protease % Inhibition [3]: 120.48%
CC(C)(C)C(C1=C(O)C(Cc2ccccc2)(Cc2ccccc2)OC1=O)c1cccc(NS(=O)(=O)c2ccc(C#N)cc2)c1 (stereo not drawn) [IX-54],102,105,92.4,–
"CC(C)(C)C(C1=C(O)C(CCCc2ccccc2)OC1=O)c1ccccc1 (stereo not drawn) [FX-5, 2(5H)-Furanone, 3-(2,2-dimethyl-1-phenylpropyl)-4-hydroxy-5-(3-phenyl-propyl)-]",61.9,84.4,84.3,–
"CCC(c1ccccc1)C1OC(=O)C(C(c2ccccc2)C2CC2)=C1O (stereo not drawn) [GX-6, 2(5H)-Furanone, 3-(cyclopropylphenylmethyl)-4-hydroxy-5-(1-phenylpropyl)-]",91.9,99.7,103,–
"O=C1OC(CCCc2ccccc2)C(O)=C1C(c1ccccc1)c1ccccc1 (stereo not drawn) [FX-2, 2(5H)-Furanone, 3-(diphenylmethyl)-4-hydroxy-5-(3-phenylpropyl)-]",41.5,69,77.3,–
"CCCC1(Cc2cccnc2)OC(=O)C(C(c2ccccc2)C2CC2)=C1O (stereo not drawn) [DX-6, 2(5H)-Furanone, 3-(cyclopropylphenylmethyl)-4-hydroxy-5-propyl-5-(3--pyridinylmethyl)-]",103,102,104,–
"CCCCC1OC(=O)C(C(c2ccccc2)C2CC2)=C1O (stereo not drawn) [BX-11, 2(5H)-Furanone, 5-butyl-3-(cyclopropylphenylmethyl)-4-hydroxy-]",45.1,78.3,93.4,–
"O=C1O/C(=C\c2ccccc2)C(O)=C1C(c1ccccc1)C1CC1 (stereo not drawn) [JX-2, 5-Benzylidene-3-(cyclopropyl-phenyl-methyl)-4-hydroxy-5H-furan-2-one]",56.9,87.7,103,–
"COC(=O)CC(CCc1ccccc1)C1OC(=O)C(C(c2ccccc2)C2CC2)=C1O (stereo not drawn) [HX-1, 2-Furanpropanoic acid, 4-(cyclopropylphenyl-methyl)-2,5-dihydro-3-hydroxy-5--oxo-β-(2-phenylethyl)-, methyl ester]",62.1,90.9,–,inhibition at 1.1 µM: 37.6%
CCCC1(CCC)OC(=O)C(C(c2cccc(NS(=O)(=O)c3ncc[nH]3)c2)C2CC2)=C1O (stereo not drawn) [IX-36],37,79.6,83,–
"O=C1OC2(CCCC2)C(O)=C1C(c1ccccc1)C1CC1 (stereo not drawn) [CX-1, 1-Oxaspiro[4.4]non-3-en-2-one, 3-(cyclopropylphenylmethyl)-4-hydroxy-]",–,–,–,inhibition at 3.7 µM (HIV-1 dose 3.7 μM): 109%; inhibition at 11 µM (HIV-1 dose 11.0 μM): 115%; inhibition at 100 µM: 109%
"CCCC1(CCC)OC(=O)C(C(c2cccc([N+](=O)[O-])c2)C2CC2)=C1O (stereo not drawn) [IX-1, 2(5H)-Furanone, 3-(cyclopropyl(3-nitrophenyl)methyl)-4-hydroxy-5,5-dipropyl-]",108,121,122,–
"CC(C)C1(CCCc2ccccc2)OC(=O)C(C(c2ccccc2)C2CC2)=C1O (stereo not drawn) [DX-17, 2(5H)-Furanone, 3-(cyclopropylphenylmethyl)-4-hydroxy-5-(1-methylethyl)-5-(3--phenylpropyl)-]",103,97.6,96,–
"O=C1OC(C(O)CCc2ccccc2)C(O)=C1C(c1ccccc1)C1CC1 (stereo not drawn) [BX-8, 2(5H)-Furanone, 3-(cyclopropylphenylmethyl)-4-hydroxy-5-(1-hydroxy-3--phenylpropyl)-]",51,73.3,78.2,–
"C=CC(C1=C(O)C(CCCc2ccccc2)OC1=O)c1ccccc1 (stereo not drawn) [FX-3, 2(5H)-Furanone, 4-hydroxy-3-(1-phenyl-2-propenyl)-5-(3-phenylpropyl)-]",38.6,66.3,68.6,–
